In patent publication US20120178124A1, “STEROL SIDE CHAIN-CLEAVING ENZYME PROTEIN AND USE THEREOF” (MITSUBISHI CHEMICAL CORPORATION, priority 2009, published 2012):

T1: CYP11A (Homo sapiens, UniProt P05108)
T1 construct: A 1.45-kb CYP11A1 gene fragment amplified as a result of the above-described reaction; expressed in transfected cells; host or cells: Escherichia coli BL21(DE3), plasmid pCYP11A-ARX (strain BL21CYP11)
T1 sequence (P05108 40-521): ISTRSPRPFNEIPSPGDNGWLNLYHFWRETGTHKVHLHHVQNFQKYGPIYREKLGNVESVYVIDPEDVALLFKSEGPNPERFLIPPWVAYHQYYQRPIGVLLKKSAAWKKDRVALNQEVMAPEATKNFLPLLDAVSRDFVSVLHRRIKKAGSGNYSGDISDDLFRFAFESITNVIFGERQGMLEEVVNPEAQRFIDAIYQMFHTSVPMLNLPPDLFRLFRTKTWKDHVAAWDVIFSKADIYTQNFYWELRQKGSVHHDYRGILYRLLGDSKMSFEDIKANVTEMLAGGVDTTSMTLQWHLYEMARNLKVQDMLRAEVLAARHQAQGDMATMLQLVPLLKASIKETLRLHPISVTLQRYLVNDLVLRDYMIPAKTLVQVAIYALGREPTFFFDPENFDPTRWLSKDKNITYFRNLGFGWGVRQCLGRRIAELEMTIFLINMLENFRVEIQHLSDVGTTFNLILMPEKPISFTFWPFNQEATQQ


What was measured:
[1] = target: T1, CYP11A; experiment: Conversion reaction of substrates by CYP11A-expressing Escherichia coli; assay type: cell-based
Protocol: The Escherichia coli expression strain BP215 was inoculated into 2 ml of an M9 mix medium (Na2HPO4: 0.68%, KH2PO4: 0.3%, NaCl: 0.05%, NH4C;: 0.01%, Casamino acid: 1%, D-Glucose: 0.4%, CaCl2: 0.1 mM, MgCl2: 1 mM, Thiamine: 0.002%, FeSO4: 0.1 mM, Carbenicillin: 0.005%), and it was then subjected to shaking culture at 30° C. for 17 hours, so as to obtain pre-culture solution. 0.25 ml of this pre-culture solution was inoculated into 25 ml of the main culture medium (Na2HPO4: 0.68%, KH2PO4: 0.3%, NaCl: 0.05%, NH4Cl: 0.01%, Casamino acid: 1%, CaCl2: 0.1 mM, MgCl2: 1 mM, Thiamine: 0.002%, FeSO4: 0.1 mM, Carbenicillin: 0.005%, Overnight Express™ solution: 7%, 5-Aminolevlic acid: 0.008%) using Overnight Express™ Autoinduction System (Novagen Cat. No. 71300-4), and it was then subjected to shaking culture at 25° C. for 24 hours. 5 ml of the obtained main culture solution was centrifuged (3500 rpm, 10 minutes) to obtain cell mass, and 1 ml of CV2 buffer (50 mM (pH) potassium phosphate buffer containing glycerol: 2%, carbenicillin: 0.005%, and isopropyl β-D-1-thiogalactopyranoside: 0.1 mM) was added to the obtained cell mass. Thereafter, 0.01 ml of the methanol solution of 1% 4-cholesten-3-one and 0.02 ml of an aqueous solution of 25% methyl-β-cyclodextrin were added to the mixed solution, and the obtained mixture was then shaken at 28° C. for 5 hours for the reaction. After completion of the reaction, 4 ml of methanol was added to the reaction solution, and they were then fully mixed. The obtained mixture was centrifuged, and the upper layer was then analyzed by HPLC.
A commercially available human testis cDNA (Origene Technologies, Inc.) was used as a template, and a CYP11A1 gene was amplified by PCR using a primer CYP11A-1F (SEQ ID NO: 19) and a primer CYP11A-2R (SEQ ID NO: 20), and also using KOD plus polymerase (TOYOBO Co., Ltd.). The temperature conditions applied during the PCR were 94° C./3 min, 30 cycles of (94° C./30 sec, 55° C./60 sec, and 72° C./90sec), and 72° C./5 min.
A 1.45-kb CYP11A1 gene fragment amplified as a result of the above-described reaction was purified using QIAquick PCR purification Kit (manufactured by QIAGEN), and it was then digested with Nde I and Spe I. Thereafter, the digest was ligated to Escherichia coli expression vector pT7NS-camAB, using T4 DNA ligase, and Escherichia coli DH5α was then transformed with the obtained expression vector, so as to construct a plasmid pCYP11A-camAB. Subsequently, using T4 DNA ligase, the previously prepared bovine-derived adrenodoxin reductase protein-adrenodoxin gene (adr-adx) fragment was inserted into and ligated to each of the Spe I and Bam HI sites of the above-described plasmid, and Escherichia coli DH5a was then transformed with the obtained plasmid, so as to construct plasmid pCYP11A-ARX. Thereafter, Escherichia coli BL21(DE3) was transformed with the thus constructed plasmid, and the obtained cell strain was named as BL21CYP11. The used adx-adr fragment was amplified by PCR with a plasmid pKARX (Sawada et. al. Eur. J. Biochem. 265, 950-956,1999) as a template, using primer bAdxR-1F (SEQ ID NO: 21) and primer bAdx-2R (SEQ ID NO: 22), and also using KOD plus polymerase (manufactured by TOYOBO Co., Ltd.). The temperature condition applied during the PCR were 94° C./3 min, 25 cycles of (94° C./30 sec, 60° C./30 sec, and 72° C./120sec), and 72° C./5 min.
Each substrate was subjected to the same reaction as that of Example 6, separately, and the reaction solution was then subjected to liquid separation using 1 ml of ethyl acetate. The reaction product and the substrate were extracted, and were then analyzed by HPLC.

[2] = substrate: CC(C)CCC[C@@H](C)[C@H]1CC[C@H]2[C@@H]3CCC4=CC(=O)CC[C@]4(C)[C@H]3CC[C@]12C; experiment: purified protein, by the assay type; conditions: other: 4-cholesten-3-one 0.1 to 500 μM, pH 7.5, 15° C., 60 minutes, Lineweaver-Burk plot

Molecule | added substrate remained ([1]; same reaction as Example 6) [%] | Conversion rate ([1]; same reaction as Example 6 (28° C., 5 hours)) [%] | Km [2] [µM]
CC(C)CCC[C@@H](C)[C@H]1CC[C@H]2[C@@H]3CCC4=CC(=O)CC[C@]4(C)[C@H]3CC[C@]12C [4-cholesten-3-one] | 100 | 0 | –
Sphingomonas subterranea NBRC16086 P450scc CYPSS204A (CYPSS), wild type, SEQ ID NO: 2 (Novosphingobium subterraneum) (protein) MASAAAGADGLPLLDGGVPLLGHLAQFFRDPVSVLKRGYRSKGRLFAMNFMGQRMNVMLGPEHNRFFFEETDKLLSIRESMPFFLKMFSPEFYSFAEMDEYLRQRAIIMPRFKAASMKQYVPVMVEESLNLVERLGEEGEFDLIPTLGPVVMDIAAHSFMGREFHEKLGHEFFELFRDFSGGMEFVLPLWLPTPKMVKSQRAKKKLHAILQSWIDKRRASPLDPPDFFQTMIETKYPDGRAVPDEIIRHLILLLVWAGHETTAGQVSWALADLLQNPGYQQVLREEVASLLGGSDGRALGWEQAVAMEKMDLALRETERLHPVAYMLSRKASADIERDGYRIRKGEFVLLAPSVSHRMEETFRNADAYDPERFNPQNPDAQIESNSLIGFGGGVHRCAGVNFARMEMKVLVAILLQNFDMELIDEVRPIAGASTYWPAQPCRVRYKRRKLDGAGGSADVAALAKAAGCPAHA | – | – | 1.1
